Reference: patent publication US11691962B2 (eXIthera Pharmaceuticals, Inc., priority 2018, dated 2023)

Columns and labels:
Factor Xa = Factor Xa (Homo sapiens (Human), UniProt P00742); test: Dose response assay for protease inhibitors: Factor Xa; format: biochemical; details: selectivity, Factor Xa over Factor XIa
How it was run: (§1)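 Fluorogenic AMC-peptide cleavage in 20 mM Hepes pH 7.4, 150 mM NaCl, 0.02% Tween 20; 100 μM stock substrate dilution (Glp-Pro-Arg-AMC for thrombin/trypsin; Pro-Phe-Arg-AMC or Boc-Leu-Gly-Arg-AMC for Factor Xa). Enzyme diluted to 0.5 nM, added last to two-fold compound series; kinetic read at 30° C, 30 min (Factor Xa 60 min); IC50 fitted.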

Thrombin = Thrombin (Homo sapiens (Human), UniProt P00734); test: Dose response assay for protease inhibitors: thrombin; format: biochemical; details: selectivity, thrombin over Factor XIa
How it was run: as §1

[1] = Caco-2 cell permeability assay; format: in vitro ADME, human; details: human, 37° C.; for Papp A→B at 60 min, 10 μM: Caco-2, apical to basolateral; for Papp B→A at 40 min, 10 μM: Caco-2, basolateral to apical
Protocol: The following procedure was used to determine the ability of a test compound to cross Caco-2 cells (human intestinal epithelial cells derived from a colorectal adenocarcinoma). The cells were seeded at 1×10^5 cells/cm^2 in 96-well Multiscreen™ plates (Millipore). Permeability assays were performed with the cells at days 21-25 post-seeding. Cells are typically used for 15 consecutive passages in culture.
This assay can be performed in either the apical to basolateral (A-B) or basolateral to apical (B-A) direction. The test compound was prepared at 10 μM in HBSS-MES (pH 6.5) or HBSS-HEPES (pH 7.4) with a final DMSO concentration of 1%. The working solution was then centrifuged and the supernatant added to the donor side. The assay plate was incubated at 37° C. with gentle shaking for 60 min or 40 min for the A-B or B-A assay, respectively. Samples were aliquoted from the donor side at time zero and the end point, and from the receiver side at the end point.
Reference compounds, propranolol (highly permeable), labetalol (moderately permeable), ranitidine (poorly permeable), and colchicine (P-glycoprotein substrate) were included in each assay.
Samples are analyzed by HPLC-MS/MS using selected reaction monitoring. The HPLC system consists of a binary LC pump with autosampler, a C-18 column, and a gradient.
The apparent permeability coefficient (Papp) of the test compound (Equation 2) and its recovery (Equation 3) are calculated as follows:
[formula] wherein A is the surface area of the cell monolayer (0.11 cm^2), C is concentration of the test compound expressed as peak area, D denotes donor, and R is receiver. “0”, “mid,” and “end” denote time at zero, mid-point, and end of the incubation, respectively. Δt is the incubation time. V is the volume of the donor or receiver.
This is most likely due to non-specific binding or degradation.

Factor XIa = Factor XIa (Homo sapiens (Human), UniProt P03951); test: Factor XIa enzyme inhibition assay (dose response, fluorogenic AMC substrate); format: biochemical; details: read-out: hFXIa IC50
Factor XIa, sequence (P03951 388-625): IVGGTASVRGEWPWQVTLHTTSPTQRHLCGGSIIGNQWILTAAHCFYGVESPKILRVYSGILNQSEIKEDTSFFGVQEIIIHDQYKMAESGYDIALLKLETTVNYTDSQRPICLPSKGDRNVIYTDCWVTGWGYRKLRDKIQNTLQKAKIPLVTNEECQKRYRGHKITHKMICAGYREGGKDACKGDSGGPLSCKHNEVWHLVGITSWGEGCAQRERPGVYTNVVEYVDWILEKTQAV
Factor XIa, sequence (P03951 19-387 partner): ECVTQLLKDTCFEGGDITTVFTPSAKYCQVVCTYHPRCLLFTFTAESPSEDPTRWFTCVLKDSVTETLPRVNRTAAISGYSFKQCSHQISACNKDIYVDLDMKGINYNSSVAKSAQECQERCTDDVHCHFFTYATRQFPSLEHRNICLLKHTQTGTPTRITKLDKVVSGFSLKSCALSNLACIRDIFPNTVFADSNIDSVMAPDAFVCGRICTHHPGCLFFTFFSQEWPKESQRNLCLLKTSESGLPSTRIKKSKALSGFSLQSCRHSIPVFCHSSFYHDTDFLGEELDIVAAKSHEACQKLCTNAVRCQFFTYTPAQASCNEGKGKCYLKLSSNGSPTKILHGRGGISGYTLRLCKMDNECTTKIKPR
How it was run: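 Human FXIa at 0.25 nM final with 50 μM final PyroGlu-Pro-Arg-AMC in 20 mM Hepes pH 7.4, 150 mM NaCl, 0.02% Tween 20. Two-fold serial compound dilutions; fluorescence read every minute for 30 min at 30° C. IC50 from a four-parameter Hill fit.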

Trypsin = test: Dose response assay for protease inhibitors: trypsin; format: biochemical; details: selectivity, trypsin over Factor XIa
How it was run: as §1

[2] = Metabolic stability in dog hepatocytes; format: in vitro ADME; details: pooled cryopreserved hepatocytes; beagle dog hepatocytes, 2 μM compound; read-out: Dog Hepatocyte Stability (t1/2)
Protocol: The following procedure was used to determine the stability of test compounds in beagle dog hepatocytes in a 96-well plate format. The test compounds, including the controls, imipramine and 7-ethoxycoumarin, were dissolved at 10 mM in DMSO, followed by further 5-fold dilution with DMSO to 2 mM. Pooled cryopreserved beagle dog hepatocytes were thawed and transferred into complete medium. Cells were gently centrifuged (700 rpm for 5 min) and the pellet rinsed with KHB (Krebs Henseleit buffer). Cells were resuspended, counted using Trypan blue, and adjusted to 1 million cells/mL in KHB buffer. The 2 mM compound stock solutions were diluted 10-fold with acetonitrile, followed by a further 50-fold dilution with KHB buffer. 200 μL of these compound solutions were transferred to 96-well polypropylene assay plates and an equal volume of the hepatocyte solution was added and mixed to initiate the reaction (final assay concentrations were 2 μM compound and 500,000 cells/mL). Assay plates were incubated at 37° C. in 5% CO2 with gentle agitation. 50 μL aliquots were removed at multiple time points out to 180 minutes and quenched with 6 volumes of cold acetonitrile (containing 250 ng/mL of carbutamide and chrysin as internal standards) to terminate the reaction and precipitate protein. Quenched samples were maintained on ice. The quenched samples were centrifuged at 2000×g (3100 rpm) for 10 minutes at 4° C. 50 μL aliquots of the supernatants were removed and diluted with 100 μL Milli-Q water to reduce the % organic content prior to bioanalysis by LC-MS/MS. Peak areas corresponding to the test compound were recorded. The compound remaining was calculated by comparing the peak area at each time point to time zero. Data were analyzed and results were calculated using Microsoft Excel 2010.

[3] = Plasma protein binding by equilibrium dialysis; format: in vitro ADME; details: both sexes, pH 7.4, pooled human plasma, 4 hours at 37° C., read-out: PPB (%)
Protocol: The following procedure was used to determine the plasma protein binding of a test compound in pooled plasma from human (mixed gender) via equilibrium dialysis in a 96-well plate format. The dialysate compartment was loaded with phosphate-buffered saline (pH 7.4) and the sample side was loaded with plasma spiked with the test compound at a concentration of 10 μM. After loading, samples were covered and incubated for 4 hours at 37° C. After incubation, each compartment was sampled, diluted with acetonitrile/buffer and centrifuged. The supernatants were analyzed by HPLC-MS/MS. The analyte peak areas obtained from HPLC-MS/MS analysis of each sample were used to calculate protein binding according to the following equation (Equation 4):
[formula] where: AREAp=Peak area of analyte in protein matrix; AREAb=Peak area of analyte in buffer.
The amount measured in the plasma compartment included both free and bound drug, while that on the buffer side represented free drug only; the differences were used to calculate the percentage plasma protein bound. Three reference compounds were tested in each assay: acebutolol, quinidine and warfarin.

[4] = Aqueous solubility in PBS by HPLC-UV/VIS; format: physicochemical; details: phosphate buffered saline, aqueous buffer, kinetic from dmso stock; PBS pH 7.4, 2% DMSO, 24 h at room temperature
Protocol: The following procedure was used to determine the aqueous solubility of a test compound in phosphate buffered saline (PBS-NaCl 137 mM, KCl 2.7 mM, Na2HPO4 8.1 mM, KH2PO4 1.5 mM, pH 7.4) in 96-well plate format by HPLC-UV/VIS analysis. The test compound was prepared at 200 μM in PBS from a 10 mM DMSO stock solution. The final DMSO concentration was 2%. The PBS buffer samples were mixed thoroughly followed by incubation at room temperature for 24 h. At the end of the incubation, the PBS buffer samples were centrifuged and supernatants analyzed by HPLC. The aqueous solubility (μM) of the test compound in PBS was determined by comparing the peak area of the principal peak in the calibration standard (200 μM) with the peak area of the corresponding peak in each of the PBS samples. The range of the assay was approximately 0.5 μM to 200 μM. The reference compounds used in each assay were metoprolol, rifampicin, ketoconazole, phenytoin, haloperidol, simvastatin, diethylstilbestrol, and tamoxifen ranking from fully soluble (200 μM) to poorly soluble (<1 μM).

Factor Xa, sequence (P00742 235-488): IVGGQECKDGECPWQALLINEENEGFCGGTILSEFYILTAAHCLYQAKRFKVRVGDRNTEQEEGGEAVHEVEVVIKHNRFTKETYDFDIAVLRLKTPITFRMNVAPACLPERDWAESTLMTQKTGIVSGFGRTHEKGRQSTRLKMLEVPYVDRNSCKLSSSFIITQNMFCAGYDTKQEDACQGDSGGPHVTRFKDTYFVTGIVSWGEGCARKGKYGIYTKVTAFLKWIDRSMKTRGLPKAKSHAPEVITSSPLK
Factor Xa, sequence (P00742 41-179 partner): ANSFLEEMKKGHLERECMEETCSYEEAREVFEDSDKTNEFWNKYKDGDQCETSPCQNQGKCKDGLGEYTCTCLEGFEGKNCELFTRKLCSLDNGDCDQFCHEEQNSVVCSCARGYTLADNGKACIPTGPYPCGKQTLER

Compound | Ratio: FXa/FXIa (Factor Xa) | Ratio: Thrombin/FXIa (Thrombin) | Papp A→B at 60 min, 10 μM [1] | Papp B→A at 40 min, 10 μM [1] | IC50 (Factor XIa) | Ratio: Trypsin/FXIa (Trypsin) | half-life at 2 μM [2] | fraction unbound at 4 h, 10 μM [3] | solubility at 24 h [4]
CC[C@@H](NC(=O)N1C(=O)[C@H](Cc2ccnc(N)c2)[C@H]1C(=O)N(C)c1cnn(C)c1)c1cccc(Cl)c1 [Compound 1-11, (2S,3R)-3-((2-aminopyridin-4-yl)methyl)-N2-(1-methyl-1H-pyrazol-4-yl)-N1-((R)-1-(3-chlorophenyl)propyl)-N2-methyl-4-oxoazetidine-1,2-dicarboxamide] | H (“H” indicates 101-1000) | H (“H” indicates 101-1000) | < 10 ×10⁻⁶ cm/s | 11 to 30 ×10⁻⁶ cm/s | < 10 nM | G (“G” indicates 1-100) |  |  | 
CC[C@@H](NC(=O)N1C(=O)[C@H](Cc2ccnc(N)c2)[C@H]1C(=O)N(C)c1ccsc1)c1ccccc1 [Compound 1-9, (2S,3R)-3-((2-aminopyridin-4-yl)methyl)-N2-(thiophen-3-yl)-N1-((R)-1-phenylpropyl)-N2-methyl-4-oxoazetidine-1,2-dicarboxamide] | H (“H” indicates 101-1000) | H (“H” indicates 101-1000) | 11 to 30 ×10⁻⁶ cm/s | 11 to 30 ×10⁻⁶ cm/s | < 10 nM | G (“G” indicates 1-100) |  |  | 
CC[C@@H](NC(=O)N1C(=O)[C@H](Cc2cc(C)nc(N)c2)[C@H]1C(=O)N(C)c1ccn(C)n1)c1ccccc1 [Compound 1-48, (2S,3R)-3-((2-amino-6-methylpyridin-4-yl)methyl)-N2-(1-methyl-1H-pyrazol-3-yl)-N1-((R)-1-phenylpropyl)-N2-methyl-4-oxoazetidine-1,2-dicarboxamide] | I (“I” indicates > 500) | H (“H” indicates 101-1000) |  |  | < 10 nM | G (“G” indicates 1-100) | > 4 h |  | 
CC[C@@H](NC(=O)N1C(=O)[C@H](Cc2ccnc(N)c2)[C@H]1C(=O)N(C)c1nccn1C)c1cc(F)ccc1F [Compound 1-84, (2S,3R)-3-((2-aminopyridin-4-yl)methyl)-N2-(1-methyl-1H-imidazol-2-yl)-N1-((R)-1-(2,5-difluorophenyl)propyl)-N2-methyl-4-oxoazetidine-1,2-dicarboxamide] | I (“I” indicates > 500) | H (“H” indicates 101-1000) | < 10 ×10⁻⁶ cm/s | 11 to 30 ×10⁻⁶ cm/s | < 10 nM | G (“G” indicates 1-100) |  | 0.1 to 0.5 | > 100 µM
CC[C@@H](NC(=O)N1C(=O)[C@H](Cc2ccnc(N)c2)[C@H]1C(=O)N(C)c1ccn(C)n1)c1cc(C)ccc1F [Compound 1-125, (2S,3R)-3-((2-aminopyridin-4-yl)methyl)-N2-(1-methyl-1H-pyrazol-3-yl)-N1-((R)-1-(2-fluoro-5-methylphenyl)propyl)-N2-methyl-4-oxoazetidine-1,2-dicarboxamide] | I (“I” indicates > 500) | H (“H” indicates 101-1000) |  |  | < 10 nM | G (“G” indicates 1-100) |  |  | 
CC[C@@H](NC(=O)N1C(=O)[C@H](Cc2ccnc(N)c2)[C@H]1C(=O)N(C)c1nccn1C)c1cc(C)ccc1C [Compound 1-99, (2S,3R)-3-((2-aminopyridin-4-yl)methyl)-N2-(1-methyl-1H-imidazol-2-yl)-N1-((R)-1-(2,5-dimethylphenyl)propyl)-N2-methyl-4-oxoazetidine-1,2-dicarboxamide] | H (“H” indicates 101-1000) | H (“H” indicates 101-1000) |  |  | < 10 nM | G (“G” indicates 1-100) |  |  | 
CC[C@@H](NC(=O)N1C(=O)[C@H](Cc2cc(C)nc(N)c2)[C@H]1C(=O)N(C)c1ccn(C)n1)c1cc(F)ccc1F [Compound 1-144, (2S,3R)-3-((2-amino-6-methylpyridin-4-yl)methyl)-N2-(1-methyl-1H-pyrazol-3-yl)-N1-((R)-1-(2,5-difluorophenyl)propyl)-N2-methyl-4-oxoazetidine-1,2-dicarboxamide] | I (“I” indicates > 500) | H (“H” indicates 101-1000) |  |  | < 10 nM | G (“G” indicates 1-100) |  |  | 
CC[C@@H](NC(=O)N1C(=O)[C@H](Cc2ccnc(N)c2)[C@H]1C(=O)N(C)c1ccn(C)n1)c1ccc(F)c(C)c1F [Compound 1-198, (2S,3R)-3-((2-aminopyridin-4-yl)methyl)-N2-(1-methyl-1H-pyrazol-3-yl)-N1-((R)-1-(2,4-difluoro-3-methylphenyl)propyl)-N2-methyl-4-oxoazetidine-1,2-dicarboxamide] | I (“I” indicates > 500) | H (“H” indicates 101-1000) |  |  | < 10 nM | H (“H” indicates 101-1000) |  |  | 
CC[C@@H](NC(=O)N1C(=O)[C@H](Cc2ccnc(N)c2)[C@H]1C(=O)N(C)c1nccn1C)c1ccc(Cl)cc1 [Compound 1-94, (2S,3R)-3-((2-aminopyridin-4-yl)methyl)-N2-(1-methyl-1H-imidazol-2-yl)-N1-((R)-1-(4-chlorophenyl)propyl)-N2-methyl-4-oxoazetidine-1,2-dicarboxamide] | H (“H” indicates 101-1000) | H (“H” indicates 101-1000) |  |  | < 10 nM | G (“G” indicates 1-100) |  |  | 
